Source: patent US9790252B2, “2-fluorinated riboses and arabinoses and methods of use and synthesis” (CORNELL UNIVERSITY, priority 2009, dated 2017)
pEC50, pKi: −log10 of the molar value.

Tests used:
SirT2 = biological target: T1, SirT2 (Homo sapiens, UniProt Q8IXJ6); assay: SirT2 activity assay (HPLC of 2′- and 3′-AADPR); type: biochemical; conditions: 800 μM NAD+, 500 μM H3 peptide, pH 7.5
T1 sequence (Q8IXJ6 1-389): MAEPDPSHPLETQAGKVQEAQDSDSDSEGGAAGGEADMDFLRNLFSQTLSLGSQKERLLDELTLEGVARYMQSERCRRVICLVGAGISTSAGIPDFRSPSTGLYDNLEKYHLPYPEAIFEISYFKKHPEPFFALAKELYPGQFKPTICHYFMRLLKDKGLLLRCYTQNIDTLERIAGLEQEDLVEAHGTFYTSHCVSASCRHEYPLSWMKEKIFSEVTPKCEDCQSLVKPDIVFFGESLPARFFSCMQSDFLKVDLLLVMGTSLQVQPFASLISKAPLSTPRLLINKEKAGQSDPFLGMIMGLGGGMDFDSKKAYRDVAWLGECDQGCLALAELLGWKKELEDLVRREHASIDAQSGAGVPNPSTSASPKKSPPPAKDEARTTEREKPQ
Procedure: (§1) Reactions containing 800 μM NAD^+, 500 μM H3 peptide, and 100 mM phosphate buffer at pH 7.5, with varying concentrations of 2′-deoxy-2′-fluoro-nucleosides or nucleotides were initiated by addition of SirT2 enzyme to a concentration of 16.6 μM. Reactions were incubated for 45 mins at 37° C. and quenched by addition of trifluoroacetic acid to pH 2. After centrifugation to remove precipitates, reactions were injected on HPLC for activity analysis. Production of 2′- and 3′-AADPR were analyzed at 260 nm.
as §1, with “SirT2 Activity Assay: Reactions containing” for “Reactions containing”, “concentrations of 2′-deoxy-2′-chloro-nucleosides were initiated” for “concentrations of 2′-deoxy-2′-fluoro-nucleosides or nucleotides were initiated”

[1] = biological target: T2, cell developmental protein 38 (CD38) (Homo sapiens, UniProt P28907); conditions: mechanism-based inhibitor; previous studies (Refs. 10, 12); read-out: apparent Ki; cited from earlier work
T2 sequence (P28907 1-300): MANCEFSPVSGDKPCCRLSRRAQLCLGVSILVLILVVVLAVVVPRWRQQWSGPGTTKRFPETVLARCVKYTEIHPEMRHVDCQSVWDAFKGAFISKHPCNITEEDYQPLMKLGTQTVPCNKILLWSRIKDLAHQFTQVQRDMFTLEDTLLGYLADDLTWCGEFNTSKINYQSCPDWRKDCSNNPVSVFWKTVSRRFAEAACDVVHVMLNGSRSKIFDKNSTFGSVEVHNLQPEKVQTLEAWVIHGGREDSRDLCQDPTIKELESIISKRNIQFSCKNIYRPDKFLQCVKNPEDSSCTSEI

Neuro2A cells = assay: Toxicity to Neuro2A cells (MTT); type: cell-based
Procedure: 6. Neuro2A cells were seeded in 96-well plate at a density of 25,000 cells/well the day before the experiment starts;
7. After the cells reach 50˜60% confluency, media was taken out, and 100 μL of fresh media was added to each well;
8. […]
9. After 12 hours' incubation at 37° C., the media was taken out, 100 μL of fresh media was added to each well along with 20 μL of 5 mg/mL of MTT solution (in PBS);
10. After 1.5 hours' incubation at 37° C., media was taken out and 100 μL of DMSO was added to each well, the plate was mixed on shaker for 5 mins;
(§2) Absorbance was measured at 570 nm.
Assay for Determining Toxicity to HEK293 and Neuro2A Cells • 1. HEK293 and Neuro2A cells were seeded in 96-well plate at a density of 25,000 cells/well the day before the experiment starts; • 2. After the cells reach 50˜60% confluency, media was taken out, and 100 μL of fresh media was added to each well; • 3. […] After 12 hours' incubation at 37° C., the media was taken out, 100 μL of fresh media was added to each well along with 20 μL of 5 mg/mL of MTT solution (in PBS); • 5. After 2 hours' incubation at 37° C., media was taken out and 100 μL of DMSO was added to each well, the plate was mixed on shaker for 5 mins; • 6. Absorbance was measured at 570 nm.

HEK293 cells = assay: Toxicity to HEK293 cells (MTT); type: cell-based
Procedure: 1. HEK293 cells were seeded in 96-well plate at a density of 25,000 cells/well the day before the experiment starts;
2. After the cells reach 50˜60% confluency, media was taken out, and 100 μL of fresh media was added to each well;
3. F-derivatives were plated at 100 and 500 μM (in duplicates) concentrations;
4. After 12 hours' incubation at 37° C., the media was taken out, 100 μL of fresh media was added to each well along with 20 μL of 5 mg/mL of MTT solution (in PBS);
5. After 1.5 hours' incubation at 37° C., media was taken out and 100 μL of DMSO was added to each well, the plate was mixed on shaker for 5 mins;
as §2
Assay for Determining Toxicity to HEK293 and Neuro2A Cells • 1. HEK293 and Neuro2A cells were seeded in 96-well plate at a density of 25,000 cells/well the day before the experiment starts; • 2. After the cells reach 50˜60% confluency, media was taken out, and 100 μL of fresh media was added to each well; • 3. Cl-derivatives were plated at 100 and 500 μM (in duplicates) concentrations; • 4. After 12 hours' incubation at 37° C., the media was taken out, 100 μL of fresh media was added to each well along with 20 μL of 5 mg/mL of MTT solution (in PBS); • 5. After 2 hours' incubation at 37° C., media was taken out and 100 μL of DMSO was added to each well, the plate was mixed on shaker for 5 mins; • 6. Absorbance was measured at 570 nm.

NC(=O)c1ccc[n+]([C@@H]2O[C@H](COP(=O)([O-])O)C(O)C2F)c1 (stereo partly drawn) [ara-F-NMN, 2′-deoxy-2′-fluoro-arabino-nicotinamide mononucleotide]
SirT2 inhibition (in words) (SirT2): no inhibition | pKi [1]: 7.21 | 100 μM absorbance (Neuro2A cells; 100 μM, 12 hours, MTT 1.5 hours, 570 nm): 2.126 | 100 μM relative viability (Neuro2A cells; 100 μM, 12 hours, control = 1): 0.874 | 500 μM absorbance (Neuro2A cells; 500 μM, 12 hours, MTT 1.5 hours, 570 nm): 0.0143 | 500 μM relative viability (Neuro2A cells; 500 μM, 12 hours, control = 1): 0.006 | pEC50 (Neuro2A cells; 2′-deoxy-2′-fluoro-nucleosides and nucleotides): 3.79 | 100 μM absorbance (HEK293 cells; HEK293, 100 μM, 12 hours, MTT 1.5 hours, 570 nm): 1.267 | 100 μM relative viability (HEK293 cells; HEK293, 100 μM, 12 hours, control = 1): 0.5574 | 500 μM absorbance (HEK293 cells; HEK293, 500 μM, 12 hours, MTT 1.5 hours, 570 nm): 0 | 500 μM relative viability (HEK293 cells; HEK293, 500 μM, 12 hours, control = 1): 0 | pEC50 (HEK293 cells; HEK293, 2′-deoxy-2′-fluoro-nucleosides and nucleotides): 4.06
